Measured values: patent US6001808A, “Method of treating herpes virus infections with spermostatic gramicidin” (Metatron, Inc., priority 1997, dated 1999)
≈ marks a conversion by molar mass, not a printed value. Read-outs that look alike come from different tables or passages of the source.

Columns and labels:
HSV-2 = test: HSV antigen ELISA, viral yield in WI-38 fibroblasts at 24 hours; assay type: cell-based, herpes simplex virus type 2 (HSV-2)
Experimental: (§1) The effect of gramicidin on the replication of herpes simplex viruses (HSV) type 1 and 2 has been examined and compared to the effect of acyclovir--the nucleoside analog used in the prior art for the therapy of herpes virus infections. Human WI-38 fibroblasts were inoculated with either type of HSV in the presence of serial dilutions of gramicidin (10-0.001 mcg/ml) and reduction in viral yield was measured at 24 hours by ELISA. […] The average 50% inhibitory dose (IC50) of gramicidin against 3 HSV-1 and 4 HSV-2 solates was equal to 0.3 mcg/ml and was similar to the efficacy of the anti-HSV agent acyclovir (ACV). The IC50 of a single dose of gramicidin required to protect WI-38 from cytolytic effect of HSV was 10 mcg/ml at day 5 postinfection. Importantly, gramicidin suppressed the replication of ACV-resistant thymidine kinase and polymerase HSV mutants at doses effective against ACV-sensitive strains.
(§2) Human embryonic lung fibroblasts WI-38 (CCL-75, ATCC, Rockville, Md.) were grown in RPMI medium 1640 with 10% FBS, L-glutamine, and penicillin/streptomycin (GIBCO, Grand Island, N.Y.) at 37° C. with 5% CO2 air atmosphere. Herpes viruses that were tested for susceptibility to gramicidin are own in Table 1.
(§3) One day prior to the assay WI-38 monolayers were trypsinized with 0.25% trypsin/EDTA (Sigma) and plated in 96-well microculture plates at seeding concentration 10^5 cells per well. The next day triplicate wells of WI-38 monolayers were exposed to serial 10-fold dilutions (range 10 mcg/ml-1 ng/ml) of gramicidin or ACV. Positive control wells and drug-exposed wells containing 180 mcl of medium received 20 mcl ahquots of HSV-1 or HSV-2 preparation at 5,000 TCID50 per well and were incubated further for 24 hours. Thereupon, the supernatants from infected WI-38 fibroblasts were collected and levels of HSV antigen were examined by ELISA (Premier™ HSV, Meridian Diagnostics Inc., Cincinnati, Ohio) according to the manufacturer's instructions. The primary antibody supplied with this ELISA kit recognizes HSV antigens of both virus types. The amount of HSV antigen, corresponding to levels in the inoculum, was subtracted as a blank value from experimental values reached upon virus propagation in host WI-38 cells. IC50 doses were estimated from dose-response curves plotted as a function of log concentrations of drugs.

HSV-1 = test: as above; assay type: cell-based, herpes simplex virus type 1 (HSV-1)
Experimental: as §1, §2, §3

WI-38 cells [1] = test: Viability of WI-38 cells by MTS assay
Experimental: (§4) The effect of test compounds on cell viability was measured by two colorimetric assays as follows. WI-38 cells were grown in the presence or absence of ten-fold dilutions of gramicidin or ACV for two days. The cells were then exposed to MTS/phenazine methosulfate as described above. The conditions for the second, lactate dehydrogenase (LDH) assay, were similar to the MTS test except that a different cell viability parameter was measured. This assay quantitatively measures the stable cytosolic enzyme, LDH, that is released upon cell lysis in much the same way as ^51 Cr is released in radioactive assays. The results were evaluated using an enzymatic assay which measures the conversion of INT tetrazolium salt into red formazan product (CytoTox^96, Promega, Madison, Wis.). A standard 96-well plate reader was set to record wavelength absorbance at 490 nm. The residual LDH activity present in incubation medium was subtracted as a blank value. The amount of LDH released from drug-exposed cells was compared to untreated and detergent-lysed controls according to the formula provided by the manufacturer.

VR-734 strain of HSV-2 = test: Protection of WI-38 fibroblasts against cytolytic action of HSV, MTS assay day 5; assay type: cell-based, herpes simplex virus type 2 (HSV-2); conditions: day 5 postinfection, single dose
Experimental: Inoculated WI-38 cells were grown in the presence of ten-fold dilutions of gramicidin or ACV for five days until all untreated control cells were dead as a result of lytic HSV infection. The culture wells were then exposed for 4 hours to MTS tetrasolium salt and phenazine methosulfate preparation (Cell Titer^96, Promega, Madison, Wis.) and the optical density of formazan dye was measured in a plate reader at 450 nm with reference filter at 620 nm. The obtained values were then compared to both the absorbance values of dead cells and optical density of uninfected viable cells grown in the same plate. The percent of surviving WI-38 cells in drug-protected cultures was determined from dose-response curves as a function of log concentrations of test drugs.

sperm motility = test: 2-minute sperm immobilization assay (sperm motility by CASA); assay type: cell-based, human; conditions: for times higher dose required to achieve the effect of gramicidin: sperm motility, compounds alone
Experimental: The tests were conducted on unprocessed semen samples. […] Ejaculate samples from 3 normospermic volunteers were collected after 2-4 days of abstinence and allowed to liquefy for 20 minutes at 37° C. The sperm count was within the range of 60-240×10^6 cells/ml and the percentage of motile cells was over 50%. Serial dilutions of gramicidin, nonoxynol-9, EDTA or combinations thereof were mixed with fresh semen and sperm count, motility and morphology were assessed using computer-assisted semen analysis (CASA). Each 50 mcl sample of semen was mixed in a glass tube with predetermined concentration of test compounds, vortexed for 10 seconds, and left at room temperature for 2 minutes. Thereupon, a small 10 mcl portion of the sample was placed on a glass slide and motility of the sperm was evaluated automatically.

[2] = system: sperm penetration into lamb cervical mucus; test: Cervical mucus penetration assay; assay type: cell-based, human; conditions: for motility of spermatozoa found in drug-pretreated mucus: at the time of observation, N9 even after 1 hour of incubation
Experimental: Glass capillary tubes (1 mm×100 mm) were filled with freshly collected lamb cervical mucus and placed vertically into solutions with test compounds as described earlier. After 30 minutes, incubation to allow the diffusion of drugs into mucus, the mucus-containing tubes were dipped vertically into cuvettes with the semen. After 15 minutes, the sperm that moved upwards from the bottom of the capillary tube was evaluated under microscope for traveled distance and the percent of motile sperm.

sperm viability [3] = test: Lactate dehydrogenase (LDH) release assay on sperm; assay type: cell-based, human; conditions: high doses, serial dilutions 100 mcg-1 ng per ml
Text: The disruption of the sperm membrane by N9-like detergents such as Triton X-100 or by gramicidin S leads to release of intracellular LDH isoenzymes or membrane-associated LDH-X, and an increase in LDH activity can be measured by assaying the supernatant of sperm suspension. The increase in LDH activity can be thus used as an indicator of drug toxicity since cytosolic LDH is released upon cell lysis in the same way as 51Cr is released in radioactive assays. The assay setting is similar to XTT assay and released LDH is quantitated with commercial enzymatic assay (CytoTox96, Promega, Madison, Wis.). An ordinary plate reader was used to record visible wavelength absorbance at 490 nm. The residual LDH activity usually present in seminal plasma or in incubation medium was subtracted as blank values and the % of toxicity was determined as directed by manufacturer's instruction. This assay is very sensitive and results are obtained within 30 minutes.
(§5) These two methods, XTT and LDH, were used simultaneously on the same semen samples to determine the toxic effect of gramicidin. Both quantitative tests, measuring two independent indicators of sperm viability, indicate that gramicidin is a potent nontoxic agent with antifertility potential.

sperm viability [4] = test: Tetrazolium dye reduction (XTT) assay on sperm; assay type: cell-based, human; conditions: highest 100 mcg/ml concentration
Experimental: The spermatozoa from fertile donors are capable of nitroblue tetrazolium reduction in a same way as the fibroblasts in Example 1. Briefly, sperm were suspended in a 96-well plate in the presence of serial ten-fold dilutions of test compounds and each 180 mcl well received 20 mcl of XTT solution at final concentration 1 mg/ml of XTT (Sigma) with 1% w/v of PMS (Aldrich, Milwaukee, Wis.). Drug untreated spermatozoa served as positive viability references.
as §5

HSV type 1 and 2 = test: HSV antigen ELISA, summary over HSV-1 and HSV-2 isolates; assay type: cell-based, herpes simplex viruses (HSV) type 1 and 2
HIV = conditions: 10 ng/ml; cited from earlier work
WI-38 cells [5] = test: LDH release from drug-exposed WI-38 cells; conditions: 2 days of treatment, highest 10 mcg dose
Experimental: as §4

[6] = 0% EDTA, 2 minutes, unprocessed semen
[7] = 0.1% EDTA, 2 minutes, unprocessed semen

Nc1nc2c(ncn2COCCO)c(=O)[nH]1 [Acyclovir, [2-hydroxyethoxymethyl]guanine]
IC50 (HSV-2; Human alphaherpesvirus 2, WI-38, 24 h, read-out: IC50 on HSV replication by antigen ELISA, VR-734 strain of HSV-2, WI-38 cells, day 1 postinfection): 0.2 mg/L (≈ 0.888 µM)
IC50 (HSV-2; Human alphaherpesvirus 2, WI-38, read-out: IC50 by HSV antigen ELISA, HSV type 2 strain 186, ACV-sensitive): 0.1 mg/L (≈ 0.444 µM)
IC50 (HSV-2; Human alphaherpesvirus 2, WI-38, read-out: IC50 by HSV antigen ELISA, HSV type 2 strain 8708, TK altered): 9.9 mg/L (≈ 44 µM)
IC50 (HSV-2; Human alphaherpesvirus 2, WI-38, read-out: IC50 by HSV antigen ELISA, HSV type 2 strain Kost, TK altered): 15.8 mg/L (≈ 70.2 µM)
IC50 (HSV-2; Human alphaherpesvirus 2, WI-38, read-out: IC50 by HSV antigen ELISA, HSV type 2 strain VR-734, ACV-sensitive): 0.2 mg/L (≈ 0.888 µM)
IC50 (HSV-1; Human alphaherpesvirus 1, WI-38, read-out: IC50 by HSV antigen ELISA, HSV type 1 strain DM2.1, TK-): 77.3 mg/L (≈ 343 µM)
IC50 (HSV-1; Human alphaherpesvirus 1, WI-38, read-out: IC50 by HSV antigen ELISA, HSV type 1 strain KOS, ACV-sensitive): 0.4 mg/L (≈ 1.78 µM)
IC50 (HSV-1; Human alphaherpesvirus 1, WI-38, read-out: IC50 by HSV antigen ELISA, HSV type 1 strain PAAr, Polymerase-): 52.4 mg/L (≈ 233 µM)
toxicity to host WI-38 cells (WI-38 cells [1]): not toxic
IC50 (VR-734 strain of HSV-2; Human alphaherpesvirus 2, WI-38, 120 h, read-out: IC50 for protection of WI-38 from cytolytic effect of HSV): 0.2 mg/L (≈ 0.888 µM)

O=C(O)CN(CCN(CC(=O)O)CC(=O)O)CC(=O)O [EDTA, ethylenediaminetetraacetic acid]
IC100 on sperm motility (sperm motility; [6]): 5,000 mcg/ml
times higher dose required to achieve the effect of gramicidin (sperm motility): ≥ 1250 times
IC100 in cervical mucus penetration assay ([2]; 0% EDTA): 1,200 mcg/ml

CCCCCCCCCc1ccc(OCCOCCOCCOCCOCCOCCOCCOCCOCCO)cc1 [Nonoxynol-9, nonoxynol-9]
enhancement in activity upon combination with EDTA (sperm motility): less than a two-fold enhancement
IC100 on sperm motility (sperm motility; [6]): 200 µg/mL
IC100 on sperm motility (sperm motility; [7]): 125 µg/mL
effect on sperm motility (sperm motility; at 4 mcg/ml, 2 minutes): no effect
times higher dose required to achieve the effect of gramicidin (sperm motility): At least 50 times
IC100 in cervical mucus penetration assay ([2]; 0% EDTA, no IC100 at the highest tested dose): > 1000 µg/mL
IC100 in cervical mucus penetration assay ([2]; 0.1% EDTA): 100 µg/mL
IC50 ([2]; Homo sapiens, Sperm, 0% EDTA, footnote: value represents IC50): 900 mg/L (≈ 1460 µM)
motility of spermatozoa found in drug-pretreated mucus [2]: retained motility

gramicidin D
effect on LDH release from sperm (sperm viability [3]): negligible
IC100 on sperm motility (sperm motility; [6]): 4 µg/mL
IC100 on sperm motility (sperm motility; [7]): 0.01 µg/mL
reversibility of effect on sperm motility (sperm motility; after washing sperm and resuspending in Earle's balanced salt solution): irreversible effect
times more potent than N9 (sperm motility; sperm immobilization, without EDTA): 50 times
IC100 on sperm motility (sperm motility; with 0.1% of EDTA): 0.01 µg/mL
effect on mitochondrial hydrogenases of sperm (XTT) (sperm viability [4]): no effect
average 50% inhibitory dose (IC50) (HSV type 1 and 2; average against 3 HSV-1 and 4 HSV-2 isolates): 0.3 mg/L
IC50, reduction in viral yield by ELISA (HSV type 1 and 2; both HSV type 1 and 2, 24 hours, range over isolates): 0.1 to 0.4 mg/L
activity against lab strains and clinical isolates of HIV (HIV): active
IC50 by HSV antigen ELISA (HSV-2; HSV type 2 strain 186, ACV-sensitive): 0.1 mg/L
IC50 by HSV antigen ELISA (HSV-2; HSV type 2 strain 8708, TK altered): 0.3 mg/L
IC50 by HSV antigen ELISA (HSV-2; HSV type 2 strain Kost, TK altered): 0.2 mg/L
IC50 by HSV antigen ELISA (HSV-2; HSV type 2 strain VR-734, ACV-sensitive): 0.3 mg/L
IC50 on HSV replication by antigen ELISA (HSV-2; VR-734 strain of HSV-2, WI-38 cells, day 1 postinfection): 0.3 mg/L
IC100 in cervical mucus penetration assay ([2]; 0% EDTA): 3 µg/mL
IC100 in cervical mucus penetration assay ([2]; 0.1% EDTA): 0.001 µg/mL
motility of spermatozoa found in drug-pretreated mucus [2]: immotile
concentration that completely prevented penetration of sperm into mucus ([2]; with 0.1% of EDTA): 1 ng/mi
IC50 by HSV antigen ELISA (HSV-1; HSV type 1 strain DM2.1, TK-): 0.3 mg/L
IC50 by HSV antigen ELISA (HSV-1; HSV type 1 strain KOS, ACV-sensitive): 0.2 mg/L
IC50 by HSV antigen ELISA (HSV-1; HSV type 1 strain PAAr, Polymerase-): 0.4 mg/L
effect on viability (metabolic activity) of WI-38 cells (WI-38 cells [1]; MTS, day 2, highest tested 10 mcg/ml dose): no significant effect
toxicity to host WI-38 cells (WI-38 cells [1]; at concentrations that exceeded IC50 by at least two orders of magnitude): not toxic
excess LDH released, relative to baseline of untreated controls (WI-38 cells [5]): ≤ 15%
IC50 for protection of WI-38 from cytolytic effect of HSV (VR-734 strain of HSV-2): 10 mg/L
